Each block holds one compound with its values, some of them ahead of it. The source made the active and inactive calls. The rule behind the calls is not given here.
How the values were obtained:
HT-29 = experiment: Antiproliferative activity against human HT-29 cells after 48 hrs by MTT assay; assay type: functional, cell-based; conditions: HT-29, 48 h
U-937 = experiment: Antiproliferative activity against human U937 cells after 48 hrs by MTT assay; assay type: functional, cell-based; conditions: U-937, 48 h
HL-60 = experiment: Antiproliferative activity against human HL60 cells after 48 hrs by MTT assay; assay type: functional, cell-based; conditions: HL-60, 48 h
HepG2 [1] = experiment: Antiproliferative activity against human HepG2 cells after 48 hrs by MTT assay; assay type: functional, cell-based; conditions: HepG2, 48 h
PC-3 = experiment: Antiproliferative activity against human PC3 cells after 48 hrs by MTT assay; assay type: functional, cell-based; conditions: PC-3, 48 h
A549 = experiment: Antiproliferative activity against human A549 cells after 48 hrs by MTT assay; assay type: functional, cell-based; conditions: A549, 48 h
HepG2 [2] = experiment: Cell cycle arrest in human HepG2 cells assessed as accumulation at S-phase at 0.5 uM after 48 hrs by propidium iodide staining based flow cytometry (reference value: 26.79%); assay type: functional
HepG2 [3] = experiment: Induction of apoptosis in human HepG2 cells assessed as early apoptotic cells at 0.5 uM after 48 hrs by Annexin V-FITC/propidium iodide staining based flow cytometry (reference value: 4.42%); assay type: functional
HepG2 [4] = experiment: Induction of apoptosis in human HepG2 cells assessed as live cells at 2 uM after 48 hrs by Annexin V-FITC/propidium iodide staining based flow cytometry (reference value: 95.5%); assay type: functional
HepG2 [5] = experiment: Induction of mitochondrial membrane depolarization in human HepG2 cells at 0.5 uM after 48 hrs by JC-1 staining based flow cytometry (reference value: 1.3%); assay type: functional
HepG2 [6] = experiment: Downregulation of Bcl2 protein expression in human HepG2 cells assessed as ratio of Bcl2 to GAPDH expression level at 2 uM after 48 hrs by Western blot analysis (reference value: 0.97); assay type: functional
HepG2 [7] = experiment: Upregulation of cytochrome-c protein expression in human HepG2 cells after 48 hrs by Western blot analysis; assay type: functional, cell-based
HepG2 [8] = experiment: Induction of apoptosis in human HepG2 cells assessed as necrotic cells at 1 uM after 48 hrs by Annexin V-FITC/propidium iodide staining based flow cytometry (reference value: 0.06%); assay type: functional
HepG2 [9] = experiment: Induction of apoptosis in human HepG2 cells assessed as early apoptotic cells at 2 uM after 48 hrs by Annexin V-FITC/propidium iodide staining based flow cytometry (reference value: 4.42%); assay type: functional
HepG2 [10] = experiment: Induction of apoptosis in human HepG2 cells assessed as live cells at 0.5 uM after 48 hrs by Annexin V-FITC/propidium iodide staining based flow cytometry (reference value: 95.5%); assay type: functional
HepG2 [11] = experiment: Upregulation of caspase-3 protein expression in human HepG2 cells assessed as ratio of caspase-3 to GAPDH expression level at 2 uM after 48 hrs by Western blot analysis (reference value: 0.25); assay type: functional
HepG2 [12] = experiment: Upregulation of caspase-9 protein expression in human HepG2 cells at 2 uM after 48 hrs by Western blot analysis; assay type: functional, cell-based
HepG2 [13] = experiment: Cell cycle arrest in human HepG2 cells assessed as accumulation at G1-phase at 1 uM after 48 hrs by propidium iodide staining based flow cytometry (reference value: 40.6%); assay type: functional
HepG2 [14] = experiment: Induction of apoptosis in human HepG2 cells assessed as late apoptotic cells at 0.5 uM after 48 hrs by Annexin V-FITC/propidium iodide staining based flow cytometry (reference value: 0.02%); assay type: functional
HepG2 [15] = experiment: Upregulation of cytochrome-c protein expression in human HepG2 cells assessed as ratio of cytochrome-c to GAPDH expression level at 0.5 to 2 uM after 48 hrs by Western blot analysis (reference value: 0.05); assay type: functional
HepG2 [16] = experiment: Cell cycle arrest in human HepG2 cells assessed as accumulation at G1-phase at 0.5 uM after 48 hrs by propidium iodide staining based flow cytometry (reference value: 40.6%); assay type: functional
HepG2 [17] = experiment: Induction of apoptosis in human HepG2 cells assessed as necrotic cells at 0.5 uM after 48 hrs by Annexin V-FITC/propidium iodide staining based flow cytometry (reference value: 0.06%); assay type: functional
HepG2 [18] = experiment: Downregulation of Bcl2 protein expression in human HepG2 cells assessed as ratio of Bcl2 to GAPDH expression level at 0.5 uM after 48 hrs by Western blot analysis (reference value: 0.97); assay type: functional
HepG2 [19] = experiment: Cell cycle arrest in human HepG2 cells assessed as accumulation at G2-phase at 0.5 uM after 48 hrs by propidium iodide staining based flow cytometry (reference value: 32.61%); assay type: functional
HepG2 [20] = experiment: Induction of apoptosis in human HepG2 cells assessed as late apoptotic cells at 2 uM after 48 hrs by Annexin V-FITC/propidium iodide staining based flow cytometry (reference value: 0.02%); assay type: functional
HepG2 [21] = experiment: Induction of apoptosis in human HepG2 cells assessed as late apoptotic cells at 1 uM after 48 hrs by Annexin V-FITC/propidium iodide staining based flow cytometry (reference value: 0.02%); assay type: functional
HepG2 [22] = experiment: Induction of mitochondrial membrane depolarization in human HepG2 cells at 2 uM after 48 hrs by JC-1 staining based flow cytometry (reference value: 1.3%); assay type: functional
HepG2 [23] = experiment: Cell cycle arrest in human HepG2 cells assessed as accumulation at S-phase at 1 uM after 48 hrs by propidium iodide staining based flow cytometry (reference value: 26.79%); assay type: functional
HepG2 [24] = experiment: Downregulation of Bcl2 protein expression in human HepG2 cells assessed as ratio of Bcl2 to GAPDH expression level at 1 uM after 48 hrs by Western blot analysis (reference value: 0.97); assay type: functional
HepG2 [25] = experiment: Cell cycle arrest in human HepG2 cells assessed as accumulation at G2-phase at 1 uM after 48 hrs by propidium iodide staining based flow cytometry (reference value: 32.61%); assay type: functional
HepG2 [26] = experiment: Induction of apoptosis in human HepG2 cells assessed as live cells at 1 uM after 48 hrs by Annexin V-FITC/propidium iodide staining based flow cytometry (reference value: 95.5%); assay type: functional
HepG2 [27] = experiment: Induction of apoptosis in human HepG2 cells assessed as necrotic cells at 2 uM after 48 hrs by Annexin V-FITC/propidium iodide staining based flow cytometry (reference value: 0.06%); assay type: functional
HepG2 [28] = experiment: Induction of apoptosis in human HepG2 cells assessed as early apoptotic cells at 1 uM after 48 hrs by Annexin V-FITC/propidium iodide staining based flow cytometry (reference value: 4.42%); assay type: functional
HepG2 [29] = experiment: Cell cycle arrest in human HepG2 cells after 48 hrs by propidium iodide staining based flow cytometry; assay type: functional
HepG2 [30] = experiment: Upregulation of caspase-9 protein expression in human HepG2 cells assessed as ratio of caspase-9 to GAPDH expression level at 1 uM after 48 hrs by Western blot analysis (reference value: 0.17); assay type: functional
HepG2 [31] = experiment: Cell cycle arrest in human HepG2 cells assessed as accumulation at G1-phase at 2 uM after 48 hrs by propidium iodide staining based flow cytometry (reference value: 40.6%); assay type: functional
HepG2 [32] = experiment: Cell cycle arrest in human HepG2 cells assessed as accumulation at G2-phase at 2 uM after 48 hrs by propidium iodide staining based flow cytometry (reference value: 32.61%); assay type: functional
HepG2 [33] = experiment: Cell cycle arrest in human HepG2 cells assessed as accumulation at S-phase at 2 uM after 48 hrs by propidium iodide staining based flow cytometry (reference value: 26.79%); assay type: functional
HepG2 [34] = experiment: Induction of mitochondrial membrane depolarization in human HepG2 cells after 48 hrs by JC-1 staining based flow cytometry; assay type: functional, cell-based
HepG2 [35] = experiment: Induction of mitochondrial membrane depolarization in human HepG2 cells at 1 uM after 48 hrs by JC-1 staining based flow cytometry (reference value: 1.3%); assay type: functional

IC50 (HT-29): 3.48 µM | IC50 (U-937): 5.9 µM | IC50 (HL-60): 5.66 µM | IC50 (HepG2 [1]): 1.66 µM | IC50 (PC-3): 0.23 µM | IC50 (A549): 2.45 µM
Structure (SMILES): COc1cccc(-n2cc(CNC(=O)[C@]34CCC(C)(C)C[C@H]3C3=CC[C@@H]5[C@@]6(C)CC[C@H](O[C@@H]7OC[C@H](O[C@@H]8O[C@H](CO)[C@@H](O)[C@H](O)[C@H]8O)[C@H](O)[C@H]7O[C@@H]7O[C@@H](C)[C@H](O)[C@@H](O)[C@H]7O)C(C)(C)[C@@H]6CC[C@@]5(C)[C@]3(C)CC4)nn2)c1

IC50 (HT-29): 0.93 µM | IC50 (U-937): 0.73 µM | IC50 (HL-60): 0.81 µM | IC50 (HepG2 [1]): 0.54 µM | IC50 (PC-3): 0.54 µM | IC50 (A549): 2.66 µM
Structure (SMILES): Cc1ccc(-n2cc(CNC(=O)[C@]34CCC(C)(C)C[C@H]3C3=CC[C@@H]5[C@@]6(C)CC[C@H](O[C@@H]7OC[C@H](O[C@@H]8O[C@H](CO)[C@@H](O)[C@H](O)[C@H]8O)[C@H](O)[C@H]7O[C@@H]7O[C@@H](C)[C@H](O)[C@@H](O)[C@H]7O)C(C)(C)[C@@H]6CC[C@@]5(C)[C@]3(C)CC4)nn2)cc1
Activity (HepG2 [2]): 33.29% | Activity (HepG2 [3]): 17.87% | Activity (HepG2 [4]): 41.56% | Activity (HepG2 [5]): 15.98% | Ratio (HepG2 [6]): 0.19 | Activity (HepG2 [7]): Dose-dependent effect | Activity (HepG2 [8]): 0.56% | Activity (HepG2 [9]): 21.07% | Activity (HepG2 [10]): 74.94% | Ratio (HepG2 [11]): 0.63 | Activity (HepG2 [12]): Active | Activity (HepG2 [13]): 48.4% | Activity (HepG2 [14]): 6.89% | Ratio (HepG2 [15]): 0.4 | Activity (HepG2 [16]): 48.7% | Activity (HepG2 [17]): 0.3% | Ratio (HepG2 [18]): 0.64 | Activity (HepG2 [19]): 18.01% | Activity (HepG2 [20]): 35.77% | Activity (HepG2 [21]): 21.58% | Activity (HepG2 [22]): 54.12% | Activity (HepG2 [23]): 35.92% | Ratio (HepG2 [24]): 0.47 | Activity (HepG2 [25]): 15.68% | Activity (HepG2 [26]): 53.1% | Activity (HepG2 [27]): 1.51% | Activity (HepG2 [28]): 24.76% | Activity (HepG2 [29]): Dose-dependent effect | Ratio (HepG2 [30]): 0.45 | Activity (HepG2 [31]): 49.35% | Activity (HepG2 [32]): 11.33% | Activity (HepG2 [33]): 39.32% | Activity (HepG2 [34]): Dose-dependent effect | Activity (HepG2 [35]): 33.51%

IC50 (HT-29): 7.66 µM | IC50 (U-937): 8.48 µM | IC50 (HL-60): 4.47 µM | IC50 (HepG2 [1]): 3.31 µM | IC50 (PC-3): 8.96 µM | IC50 (A549): 6.08 µM
Structure (SMILES): Cc1cccc(C)c1-n1cc(CNC(=O)[C@]23CCC(C)(C)C[C@H]2C2=CC[C@@H]4[C@@]5(C)CC[C@H](O[C@@H]6OC[C@H](O[C@@H]7O[C@H](CO)[C@@H](O)[C@H](O)[C@H]7O)[C@H](O)[C@H]6O[C@@H]6O[C@@H](C)[C@H](O)[C@@H](O)[C@H]6O)C(C)(C)[C@@H]5CC[C@@]4(C)[C@]2(C)CC3)nn1

Further lines, the compound ahead of its results:

Structure (SMILES): CC(=O)c1ccc(-n2cc(CNC(=O)[C@]34CCC(C)(C)C[C@H]3C3=CC[C@@H]5[C@@]6(C)CC[C@H](O[C@@H]7OC[C@H](O[C@@H]8O[C@H](CO)[C@@H](O)[C@H](O)[C@H]8O)[C@H](O)[C@H]7O[C@@H]7O[C@@H](C)[C@H](O)[C@@H](O)[C@H]7O)C(C)(C)[C@@H]6CC[C@@]5(C)[C@]3(C)CC4)nn2)cc1
IC50 (HT-29): 6.42 µM | IC50 (U-937): 0.78 µM | IC50 (HL-60): 4.66 µM | IC50 (HepG2 [1]): 33 µM | IC50 (PC-3): 46.9 µM | IC50 (A549): 0.28 µM

Structure (SMILES): C[C@@H]1O[C@@H](O[C@H]2[C@H](O[C@H]3CC[C@]4(C)[C@H]5CC=C6[C@@H]7CC(C)(C)CC[C@]7(C(=O)NCc7cn(-c8ccc([N+](=O)[O-])cc8)nn7)CC[C@@]6(C)[C@]5(C)CC[C@H]4C3(C)C)OC[C@H](O[C@@H]3O[C@H](CO)[C@@H](O)[C@H](O)[C@H]3O)[C@@H]2O)[C@H](O)[C@H](O)[C@H]1O
IC50 (HT-29): 3.04 µM | IC50 (U-937): 6.85 µM | IC50 (HL-60): 21.1 µM | IC50 (HepG2 [1]): 26.6 µM | IC50 (PC-3): 5.56 µM | IC50 (A549): 3.98 µM

Structure (SMILES): C[C@@H]1O[C@@H](O[C@H]2[C@H](O[C@H]3CC[C@]4(C)[C@H]5CC=C6[C@@H]7CC(C)(C)CC[C@]7(C(=O)NCc7cn(-c8ccccc8)nn7)CC[C@@]6(C)[C@]5(C)CC[C@H]4C3(C)C)OC[C@H](O[C@@H]3O[C@H](CO)[C@@H](O)[C@H](O)[C@H]3O)[C@@H]2O)[C@H](O)[C@H](O)[C@H]1O
IC50 (HT-29): 9.3 µM | IC50 (U-937): 8.79 µM | IC50 (HL-60): 18.5 µM | IC50 (HepG2 [1]): 25.8 µM | IC50 (PC-3): 45 µM | IC50 (A549): 3.74 µM

From ChEMBL document CHEMBL4229426, “Synthesis, antitumor activity evaluation and mechanistic study of novel hederacolchiside A1 derivatives bearing an aryl triazole moiety” (Bioorg Med Chem, 2018)
